Where “and” joins values, the source holds several entries; their conditions need not be identical. Equal entries are not always repeated.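 Five compound concentrations were applied to cells in 96-well plates for 48 hours; endpoints were derived by simple linear interpolation of the resulting dose-response curve. Abbreviation: GI50, concentration required for 50% inhibition of growth. TGI marks complete inhibition of growth.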
Assays:
Experiment in all cases: NCI tumour cell line growth inhibition, 48 h
NCI/ADR-RES ovarian = system: NCI/ADR-RES ovarian
KM12 colon = system: KM12 colon
NCI-H522 lung = system: NCI-H522 lung
P388/ADR leukemia = system: P388/ADR leukemia
COLO 205 colon = system: COLO 205 colon
DU-145 prostate = system: DU-145 prostate
ACHN renal = system: ACHN renal
LOX IMVI melanoma = system: LOX IMVI melanoma
U251 CNS = system: U251 CNS
SNB-78 CNS = system: SNB-78 CNS
OVCAR-5 ovarian = system: OVCAR-5 ovarian
HL-60(TB) leukemia = system: HL-60(TB) leukemia
SW-620 colon = system: SW-620 colon
IGROV1 ovarian = system: IGROV1 ovarian
UACC-257 melanoma = system: UACC-257 melanoma
SN12C renal = system: SN12C renal
PC-3 prostate = system: PC-3 prostate
CAKI-1 renal = system: CAKI-1 renal
NCI-H226 lung = system: NCI-H226 lung
UO-31 renal = system: UO-31 renal
NCI-H460 lung = system: NCI-H460 lung
SNB-75 CNS = system: SNB-75 CNS
HOP-62 NSCLC = system: HOP-62 NSCLC
HCC-2998 colon = system: HCC-2998 colon
MDA-N = system: MDA-N
DMS 114 small cell lung = system: DMS 114 small cell lung
BT-549 breast = system: BT-549 breast
MCF7 breast = system: MCF7 breast
HCT-15 colon = system: HCT-15 colon
HS 578T breast = system: HS 578T breast
SF-268 CNS = system: SF-268 CNS
SNB-19 CNS = system: SNB-19 CNS
OVCAR-8 ovarian = system: OVCAR-8 ovarian
UACC-62 melanoma = system: UACC-62 melanoma
MDA-MB-435 = system: MDA-MB-435
M14 melanoma = system: M14 melanoma
HOP-18 NSCLC = system: HOP-18 NSCLC
SK-MEL-28 melanoma = system: SK-MEL-28 melanoma
CCRF-CEM leukemia = system: CCRF-CEM leukemia
SK-OV-3 ovarian = system: SK-OV-3 ovarian
MALME-3M melanoma = system: MALME-3M melanoma
RXF-631 renal = system: RXF-631 renal
P388 leukemia = system: P388 leukemia
OVCAR-3 ovarian = system: OVCAR-3 ovarian
SN12K1 renal = system: SN12K1 renal
RPMI-8226 leukemia = system: RPMI-8226 leukemia
MDA-MB-231 breast = system: MDA-MB-231 breast
DMS 273 small cell lung = system: DMS 273 small cell lung
OVCAR-4 ovarian = system: OVCAR-4 ovarian
A498 renal = system: A498 renal
SR leukemia = system: SR leukemia
SF-295 CNS = system: SF-295 CNS
K-562 leukemia = system: K-562 leukemia
M19-MEL melanoma = system: M19-MEL melanoma
KM20L2 colon = system: KM20L2 colon
SK-MEL-2 melanoma = system: SK-MEL-2 melanoma
MOLT-4 leukemia = system: MOLT-4 leukemia
EKVX NSCLC = system: EKVX NSCLC
SF-539 CNS = system: SF-539 CNS
T-47D breast = system: T-47D breast
NCI-H23 lung = system: NCI-H23 lung
HCT-116 colon = system: HCT-116 colon
SK-MEL-5 melanoma = system: SK-MEL-5 melanoma
RXF 393 renal = system: RXF 393 renal
LXFL 529 NSCLC = system: LXFL 529 NSCLC
A549 NSCLC = system: A549 NSCLC
HT29 colon = system: HT29 colon
TK-10 renal = system: TK-10 renal
786-0 renal = system: 786-0 renal

Q: `CC[C@](C)(O)C(=O)O[C@H]1C(=O)O[C@@H]2C[C@H]3C(C)=CC(=O)[C@@H](O)[C@]3(C)[C@H]3[C@@]4(O)OC[C@]32[C@@H]1[C@@H](C)[C@H]4O` was tested. Which GI50 (NCI/ADR-RES ovarian) did it give?
A: 36 nM

Q: And the GI50 (KM12 colon)?
A: 233 nM

Q: And the TGI (KM12 colon)?
A: 3620 nM and 404 nM

Q: And the GI50 (NCI-H522 lung)?
A: 29.6 nM

Q: And the TGI (NCI-H522 lung)?
A: 148 nM

Q: And the TGI (P388/ADR leukemia)?
A: 9500 nM

Q: What about the GI50 (COLO 205 colon) of the same compound?
A: 1920 nM

Q: What about the TGI (COLO 205 colon) of the same compound?
A: 7240 nM and 3350 nM

Q: What about the TGI (DU-145 prostate) of the same compound?
A: 2900 nM

Q: And the TGI (ACHN renal)?
A: 1690 nM

Q: And the GI50 (LOX IMVI melanoma)?
A: 56.3 nM

Q: What about the TGI (LOX IMVI melanoma) of the same compound?
A: 278 nM and 545 nM

Q: What about the TGI (U251 CNS) of the same compound?
A: 410 nM and 121 nM

Q: What about the GI50 (SNB-78 CNS) of the same compound?
A: 55.6 nM

Q: And the TGI (SNB-78 CNS)?
A: 289 nM and 280 nM

Q: What about the GI50 (OVCAR-5 ovarian) of the same compound?
A: 762 nM

Q: What about the TGI (OVCAR-5 ovarian) of the same compound?
A: 8160 nM and 6860 nM

Q: What about the GI50 (HL-60(TB) leukemia) of the same compound?
A: 104 nM

Q: What about the TGI (HL-60(TB) leukemia) of the same compound?
A: 4110 nM and 1090 nM

Q: What about the GI50 (SW-620 colon) of the same compound?
A: 216 nM

Q: What about the GI50 (IGROV1 ovarian) of the same compound?
A: 73.6 nM

Q: And the TGI (IGROV1 ovarian)?
A: 544 nM and 274 nM

Q: What about the GI50 (UACC-257 melanoma) of the same compound?
A: 142 nM

Q: And the TGI (UACC-257 melanoma)?
A: 841 nM and 218 nM

Q: And the GI50 (SN12C renal)?
A: 317 nM

Q: What about the TGI (SN12C renal) of the same compound?
A: 2030 nM and 5180 nM

Q: And the TGI (PC-3 prostate)?
A: 44500 nM

Q: And the GI50 (CAKI-1 renal)?
A: 577 nM and 158 nM

Q: And the TGI (CAKI-1 renal)?
A: 8800 nM and 1350 nM

Q: And the GI50 (NCI-H226 lung)?
A: 203 nM

Q: And the TGI (NCI-H226 lung)?
A: 664 nM and 435 nM

Q: And the GI50 (UO-31 renal)?
A: 662 nM

Q: And the TGI (UO-31 renal)?
A: 3710 nM and 3780 nM

Q: What about the GI50 (NCI-H460 lung) of the same compound?
A: 184 nM

Q: What about the TGI (NCI-H460 lung) of the same compound?
A: 1120 nM and 327 nM

Q: And the GI50 (SNB-75 CNS)?
A: 258 nM

Q: What about the TGI (SNB-75 CNS) of the same compound?
A: 1020 nM and 170 nM

Q: And the GI50 (HOP-62 NSCLC)?
A: 165 nM

Q: And the TGI (HOP-62 NSCLC)?
A: 1190 nM and 368 nM

Q: What about the GI50 (HCC-2998 colon) of the same compound?
A: 120 nM

Q: What about the TGI (HCC-2998 colon) of the same compound?
A: 469 nM and 316 nM

Q: What about the TGI (MDA-N) of the same compound?
A: 2290 nM

Q: And the GI50 (DMS 114 small cell lung)?
A: < 12.4 nM

Q: What about the TGI (DMS 114 small cell lung) of the same compound?
A: < 25.7 nM

Q: And the TGI (BT-549 breast)?
A: 6760 nM

Q: What about the GI50 (MCF7 breast) of the same compound?
A: 335 nM

Q: What about the GI50 (HCT-15 colon) of the same compound?
A: 214 nM

Q: And the TGI (HCT-15 colon)?
A: 874 nM and 533 nM

Q: And the TGI (HS 578T breast)?
A: 4440 nM

Q: What about the GI50 (SF-268 CNS) of the same compound?
A: 155 nM

Q: What about the TGI (SF-268 CNS) of the same compound?
A: 633 nM and 226 nM

Q: And the TGI (SNB-19 CNS)?
A: 674 nM and 223 nM

Q: What about the GI50 (OVCAR-8 ovarian) of the same compound?
A: 164 nM

Q: What about the TGI (OVCAR-8 ovarian) of the same compound?
A: 1740 nM and 541 nM

Q: And the GI50 (UACC-62 melanoma)?
A: 149 nM

Q: What about the TGI (UACC-62 melanoma) of the same compound?
A: 705 nM and 178 nM

Q: What about the TGI (MDA-MB-435) of the same compound?
A: > 24300 nM

Q: What about the TGI (M14 melanoma) of the same compound?
A: 396 nM

Q: What about the GI50 (HOP-18 NSCLC) of the same compound?
A: 162 nM and 359 nM

Q: What about the TGI (HOP-18 NSCLC) of the same compound?
A: 977 nM and 3230 nM

Q: And the GI50 (SK-MEL-28 melanoma)?
A: 60.9 nM

Q: And the TGI (SK-MEL-28 melanoma)?
A: 264 nM and 160 nM

Q: What about the GI50 (CCRF-CEM leukemia) of the same compound?
A: 89.7 nM

Q: And the GI50 (SK-OV-3 ovarian)?
A: 1340 nM

Q: And the TGI (SK-OV-3 ovarian)?
A: 13900 nM and 4290 nM

Q: What about the GI50 (MALME-3M melanoma) of the same compound?
A: 33.7 nM

Q: And the TGI (MALME-3M melanoma)?
A: 137 nM

Q: And the TGI (RXF-631 renal)?
A: 2770 nM

Q: What about the TGI (P388 leukemia) of the same compound?
A: 198 nM

Q: What about the GI50 (OVCAR-3 ovarian) of the same compound?
A: 387 nM

Q: What about the TGI (OVCAR-3 ovarian) of the same compound?
A: 502 nM and 1620 nM

Q: And the TGI (SN12K1 renal)?
A: 59.8 nM

Q: What about the GI50 (RPMI-8226 leukemia) of the same compound?
A: 92.8 nM

Q: What about the TGI (MDA-MB-231 breast) of the same compound?
A: 4340 nM

Q: And the GI50 (DMS 273 small cell lung)?
A: 12.7 nM

Q: And the TGI (DMS 273 small cell lung)?
A: 42.5 nM and 205 nM

Q: What about the GI50 (OVCAR-4 ovarian) of the same compound?
A: 112 nM

Q: What about the TGI (OVCAR-4 ovarian) of the same compound?
A: 1260 nM and 923 nM

Q: What about the GI50 (A498 renal) of the same compound?
A: 950 nM

Q: And the TGI (A498 renal)?
A: 3360 nM and 1150 nM

Q: And the TGI (SR leukemia)?
A: 2550 nM

Q: And the GI50 (SF-295 CNS)?
A: 296 nM

Q: What about the TGI (SF-295 CNS) of the same compound?
A: 2600 nM and 351 nM

Q: What about the GI50 (K-562 leukemia) of the same compound?
A: 84.1 nM

Q: What about the GI50 (M19-MEL melanoma) of the same compound?
A: 23.3 nM

Q: And the TGI (M19-MEL melanoma)?
A: 95.7 nM and 69 nM

Q: What about the GI50 (KM20L2 colon) of the same compound?
A: 267 nM and 136 nM

Q: And the TGI (KM20L2 colon)?
A: 4770 nM and 16900 nM

Q: And the TGI (SK-MEL-2 melanoma)?
A: 644 nM and 217 nM

Q: What about the GI50 (MOLT-4 leukemia) of the same compound?
A: 36.6 nM

Q: And the GI50 (EKVX NSCLC)?
A: 1610 nM

Q: What about the GI50 (SF-539 CNS) of the same compound?
A: 14.1 nM

Q: What about the TGI (SF-539 CNS) of the same compound?
A: 35.3 nM and 89.5 nM

Q: What about the TGI (T-47D breast) of the same compound?
A: 3780 nM

Q: And the GI50 (NCI-H23 lung)?
A: 50 nM

Q: And the TGI (NCI-H23 lung)?
A: 532 nM and 136 nM

Q: And the GI50 (HCT-116 colon)?
A: 220 nM

Q: What about the TGI (HCT-116 colon) of the same compound?
A: 957 nM and 376 nM

Q: What about the TGI (SK-MEL-5 melanoma) of the same compound?
A: 136 nM

Q: And the GI50 (RXF 393 renal)?
A: 285 nM

Q: And the TGI (LXFL 529 NSCLC)?
A: 31.7 nM

Q: What about the GI50 (A549 NSCLC) of the same compound?
A: 2750 nM

Q: What about the TGI (A549 NSCLC) of the same compound?
A: 14900 nM and 9660 nM

Q: What about the GI50 (HT29 colon) of the same compound?
A: 321 nM and 122 nM

Q: And the TGI (HT29 colon)?
A: 10300 nM and 2270 nM

Q: And the TGI (TK-10 renal)?
A: 9390 nM

Q: What about the TGI (786-0 renal) of the same compound?
A: 832 nM
